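Where inhibition never reached the appropriate level, the endpoint shown equals the highest concentration tested. Otherwise, values were interpolated linearly from a five-concentration, 48-hour dose response in 96-well plates. At the GI50, growth is halved.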 Active and inactive are the calls of the source. Rule as the data show it: active = GI50 up to about 1.1 µM and inactive = higher. *1 amine or outer side, *2 acyl side, *3 side chain or, on linkers, in order; H or OH if unused. Where a SMILES comes first, the peptide text is derived from it. [ ]: non-standard residue; d: D form. The star is where a group is joined. ξ: configuration not given here. X43 = CCC(=O)CC(O)CC(C)CC(N[*:1])C(=O)[*:2]; ξLeu(3ξ-OH) = CC(C)C(O)C(N)C(=O)O; ξPro(4ξ-Me) = CC1CNC(C(=O)O)C1; X42 = CCC(C)/C=C/C(=O)*; Aib = CC(C)(N)C(=O)O; X44 = CC(CN(C)C)N*; βAla = NCCC(=O)O
What was measured:
Assay in all cases: DTP human tumour cell line panel, 48 h
[1] = test system: OVCAR-5
[2] = test system: 786-0
[3] = test system: OVCAR-4
[4] = test system: BT-549
[5] = test system: A549
[6] = test system: NCI/ADR-RES
[7] = test system: UO-31
[8] = test system: SNB-75
[9] = test system: RPMI-8226
[10] = test system: NCI-H226
[11] = test system: HOP-62
[12] = test system: SNB-19
[13] = test system: ACHN
[14] = test system: NCI-H23
[15] = test system: LOX IMVI
[16] = test system: SR
[17] = test system: PC-3
[18] = test system: TK-10
[19] = test system: OVCAR-3

Structure (SMILES) | GI50 [1] | GI50 [2] | GI50 [3] | GI50 [4] | GI50 [5] | GI50 [6] | GI50 [7] | GI50 [8] | GI50 [9] | GI50 [10] | GI50 [11] | GI50 [12] | GI50 [13] | GI50 [14] | GI50 [15] | GI50 [16] | GI50 [17] | GI50 [18] | GI50 [19]
COC(=O)c1cnc(Cl)cn1 | 58.3 µM (inactive) | > 100 µM (inactive) | 20.2 µM (inactive) | 37 µM (inactive) | > 100 µM (inactive) | 45.6 µM (inactive) | 20.2 µM (inactive) | 90.4 µM (inactive) | 21 µM (inactive) | 35.2 µM (inactive) | > 100 µM (inactive) | > 100 µM (inactive) | 71 µM (inactive) | 20.1 µM (inactive) | 33.4 µM (inactive) | 42.5 µM (inactive) | 13.6 µM (inactive) | > 100 µM (inactive) | –
CC(=O)Nc1ccc(NS(=O)(=O)c2ccc3nc(C)n(NS(=O)(=O)c4ccc(NC(C)=O)cc4)c(=O)c3c2)cc1 | > 100 µM (inactive) | > 100 µM (inactive) | > 100 µM (inactive) | > 100 µM (inactive) | > 100 µM (inactive) | > 100 µM (inactive) | > 100 µM (inactive) | > 100 µM (inactive) | > 100 µM (inactive) | > 100 µM (inactive) | > 100 µM (inactive) | > 100 µM (inactive) | > 100 µM (inactive) | > 100 µM (inactive) | > 100 µM (inactive) | > 100 µM (inactive) | > 100 µM (inactive) | > 100 µM (inactive) | > 100 µM (inactive)
CCC(=O)CC(O)CC(C)CC(NC(=O)C1CC(C)CN1C(=O)/C=C/C(C)CC)C(=O)NC(C(=O)NC(C)(C)C(=O)NC(CC(C)C)C(=O)NC(CC(C)C)C(=O)NC(C)(C)C(=O)NC(C)(C)C(=O)NCCC(=O)NC(C)CN(C)C)C(O)C(C)C (configuration not stated) (X42-[ξPro(4ξ-Me)][X43][ξLeu(3ξ-OH)][Aib]LL[Aib][Aib][βAla]-X44; configuration not given here) | 0.313 µM (active) | 1.52 µM (inactive) | 0.0361 µM (active) | 0.29 µM (active) | < 0.005 µM (active) | 7.08 µM (inactive) | 5.87 µM (inactive) | 0.0165 µM (active) | 0.0218 µM (active) | < 0.005 µM (active) | 0.151 µM (active) | 0.0115 µM (active) | 0.611 µM (active) | < 0.005 µM (active) | 0.199 µM (active) | 0.028 µM (active) | 0.00632 µM (active) | 0.345 µM (active) | 0.0074 µM (active)
CN(C)Cc1cc(C(=O)O)cc(CN(C)C)c1O | > 100 µM (inactive) | > 100 µM (inactive) | > 100 µM (inactive) | > 100 µM (inactive) | > 100 µM (inactive) | > 100 µM (inactive) | > 100 µM (inactive) | > 100 µM (inactive) | > 100 µM (inactive) | > 100 µM (inactive) | > 100 µM (inactive) | > 100 µM (inactive) | > 100 µM (inactive) | > 100 µM (inactive) | > 100 µM (inactive) | > 100 µM (inactive) | > 100 µM (inactive) | > 100 µM (inactive) | > 100 µM (inactive)
COc1ccc2oc(=N)c(C(=O)Nc3ccccn3)cc2c1 | > 100 µM (inactive) | > 100 µM (inactive) | > 100 µM (inactive) | > 100 µM (inactive) | > 100 µM (inactive) | > 100 µM (inactive) | – | > 100 µM (inactive) | > 100 µM (inactive) | 60.3 µM (inactive) | > 100 µM (inactive) | 87.1 µM (inactive) | 76 µM (inactive) | > 100 µM (inactive) | > 100 µM (inactive) | > 100 µM (inactive) | > 100 µM (inactive) | – | > 100 µM (inactive)

Reference: ChEMBL document CHEMBL1201862, “PubChem BioAssay data set” (2004)
